In one series the test system is N2. As to the kind of experiment: Gel filtration, N2 dimerization. The series is classed as physicochemical, human. Conditions: non-denaturing, 50 mM sodium phosphate pH 7.0, 200 mM KCl. As for the experimental part:
Purified proteins or gel filtration standard (BioRad) were loaded onto a Bio-Sil 250 (BioRad) size exclusion chromatography column and eluted with a buffer containing 50 mM sodium phosphate, pH 7.0 and 200 mM KCl. The elution profile was recorded by continuous absorption measurement at 280 nm.
On the technique in general: Size exclusion chromatography separates by hydrodynamic size, large species first.

In a further series the test system is CaM/C2 complex. As to the kind of experiment: AlphaScreen competition, C2-Flag/CaM-biotin complex. Conditions: C2-Flag and CaM-biotin at 100 µM Ca^2+; untagged competitor; AlphaScreen pH 7.4, 90 min room temperature. The series is classed as binding, human. On the procedure:
(§1) AlphaScreen acceptor and donor beads were coated with C2-Flag and either P2-biotin (Fig. 7D) or CaM-biotin at 100 µM Ca^2+ (Fig. 7E) and incubated with untagged C2 or N2 competitor proteins at the indicated concentrations. […] A similar finding was observed when the CaM/C2 interaction was subjected to competition by C2 or N2 (Fig. 7E).
(§2) Proteins were expressed in E. coli, affinity purified and biotinylated if applicable (for details see Methods S1). For protein interaction measurements, a proximity assay system based on the AlphaScreen technology (PerkinElmer) was used (see Methods S1). Briefly, streptavidin-coated AlphaScreen donor and anti-Flag acceptor beads at a final concentration of 16.7 µg/ml were incubated in a 384-well plate format (OptiPlate-384, PerkinElmer) with C2-GST-biotin or P2-biotin and the respective Flag-tagged interaction protein at concentrations of 10 nM, if not otherwise indicated. Assay buffer conditions were 50 mM Tris, pH 7.4, 100 mM KCl, and 0.1% BSA. After incubation for 90 min at room temperature, the AlphaScreen output signal was recorded in a Fusion alpha FP instrument (PerkinElmer) at 2 s reading time per well. AlphaScreen signals are given as mean±SEM in counts per second (cps) units.
Proteins used for competition experiments were subjected to gel filtration into the assay buffer using a PD-10 column (Amersham).

The test system of the next series is P2/C2 complex. As to the kind of experiment: AlphaScreen competition, C2-Flag/P2-biotin complex. Conditions: read-out: IC50, competition of P2/C2 complex; C2-Flag and P2-biotin; untagged competitor; AlphaScreen pH 7.4, 90 min room temperature. The series is classed as binding, human.
Description: (§3) First, we did a complementation experiment to test whether a CaM molecule that binds to the C2 fragment of TRPV4 through its C-lobe can form an additional interaction with another CaM binding domain thus forming a ternary complex. […] We used an AlphaScreen-based proximity assay (Fig. 2, Methods S1) in which the acceptor beads were coated with the C-terminal fragment C2-Flag, and the donor beads either with the N-terminal CaM binding peptide P2-biotin, or, as a negative control, with C2-biotin. The interaction between the proteins was measured in the presence of increasing CaM concentrations in 100 µM Ca^2+ or 1 mM EGTA (Fig. 3A).
as §1
Proteins were expressed in E. coli, affinity purified and biotinylated if applicable (for details see Methods S1). For protein interaction measurements, a proximity assay system based on the AlphaScreen technology (PerkinElmer) was used (see Methods S1). […] After incubation for 90 min at room temperature, the AlphaScreen output signal was recorded in a Fusion alpha FP instrument (PerkinElmer) at 2 s reading time per well. […]
(In general: In Alpha technology, singlet oxygen from a donor bead excites a nearby acceptor bead.)

Another series deals with TRPV4 C2 fragment. The series is described as follows: AlphaScreen interdomain interaction with C2. It counts as binding, human. Conditions: 10 nM C2-biotin, N2-Flag 30 pM to 1.5 µM, N3 data not shown.
Description: as §3
In an AlphaScreen interaction experiment, donor and acceptor beads were incubated with 10 nM C2-biotin and N2-Flag at concentrations ranging from 30 pM to 1.5 µM, respectively (Fig. 3C).
as §2
The expression plasmids containing the cDNA for CaM or TRPV4 fragments in the pGEX-2TK vector (Amersham) or a modified derivative that contains an in-frame Flag epitope 5’ to the multiple cloning site were transformed into the BL21(DE3) Escherichia coli host, and protein expression was induced by 200 mg/ml IPTG at an OD600 of 0.6. […] The GST-Flag fusion proteins were eluted with 50 mM Tris, pH 8.5, 100 mM KCl, and 10 mM glutathione. […] The purity of all proteins was confirmed by SDS-polyacrylamide gel electrophoresis and Coomassie staining, and the protein concentration determined by the method according to Bradford using an albumin concentration standard. […]
To establish an improved interaction assay, that allows the quantification of protein interactions on a medium to high throughput scale, a commercially available proximity assay system based on the AlphaScreen (Amplified Luminescent Proximity Homogenous Assay) technology (PerkinElmer) was modified. […]

The next series deals with N2 mutant WIA. As to the kind of experiment: AlphaScreen N-terminal homologous interaction, N2 mutant WIA. It counts as binding, human. Conditions: nominally Ca^2+-free buffers. On the procedure:
(§4) Proteins were expressed in E. coli, affinity purified and biotinylated if applicable (for details see Methods S1). For protein interaction measurements, a proximity assay system based on the AlphaScreen technology (PerkinElmer) was used (see Methods S1). […] Assay buffer conditions were 50 mM Tris, pH 7.4, 100 mM KCl, and 0.1% BSA. After incubation for 90 min at room temperature, the AlphaScreen output signal was recorded in a Fusion alpha FP instrument (PerkinElmer) at 2 s reading time per well. AlphaScreen signals are given as mean±SEM in counts per second (cps) units.

The test system of a further series is wild type N2 fragment. The series is described as follows: AlphaScreen N-terminal homologous interaction, wild type N2. The series is classed as binding, human. Conditions: nominally Ca^2+-free buffers. On the procedure: as §4

Entries after “also recorded” stand apart in the source; their conditions may differ. No end group written: not given here.

The record followed here is paper PMC2867956, “Interdomain Interactions Control Ca^2+-Dependent Potentiation in the Cation Channel TRPV4” (PLoS ONE, 2010).

Turning to “N2: N-terminal TRPV4 fragment, residues 79-138 (VPNPIDLLESTLYESSVVPGPKKAPMDSLFDYGTYRHHSSDNKRWRKKIIEKQPQSPKAP; also: Flag tag; UniProt Q9HBA0 79-138, looked up, fragment)”, in the series on N2, the oligomeric state result is listed as “a single peak was detected at a size that corresponds to the dimeric form; also recorded: monophasic elution profile with an apparent molecular size that corresponds with a dimeric form of the protein”. Besides, the IC50 with CaM/C2 complex stood at 0.522 µM; with P2/C2 complex, 0.166 µM. Besides, in the series with TRPV4 C2 fragment, the “interaction with C2” value is reported as “interdomain interaction could also be shown”.

Take “P2: N-terminal CaM binding peptide of TRPV4, residues 117-136”: in the series with N2 mutant WIA, the “binding of P2 to N2 mutant WIA” value is recorded as “bound strongly”. In the series on wild type N2 fragment, the “binding of P2 to wild type N2” value is “bound strongly”.
